Assays:
[1] = Ex vivo biodistribution in PC-3 tumor-bearing mice; details: mouse; for tissue uptake at 72 h: 72 h post-injection; for tissue uptake at 120 h: 120 h post-injection; for tissue uptake at 24 h: 24 h post-injection; for tissue uptake at 4 h: 4 h post-injection
Procedure: (§1) SPECT/CT imaging experiments were performed using an MILabs (Houten, The Netherlands) U-SPECT-II/CT scanner with a custom-made ultra-high-sensitivity big mouse collimator (2 mm pinhole size) following previously reported procedures. […] Male NOD.Cg-Rag1^tm1Mom Il2rg^tm1Wjl/SzJ (NRG) mice were used in these experiments because of their immunodeficient characteristics and excellent radiation tolerance. Mice were anaesthetized and subcutaneously implanted with 5 × 10^6 PC-3 prostate cancer cells (100 µL; 1:1 PBS/Matrigel) behind the left shoulder. SPECT/CT imaging and biodistribution studies were performed once the tumors reached a diameter of 5–8 mm, typically after approximately 4 weeks of growth.
(§2) For ex vivo biodistribution studies, the mice were injected with ~2–6 MBq of the radioligand. […] Blocking study was conducted at 1 h post-injection via co-injection of the radioligand with 100 μg of [D-Phe^6,Leu-NHEt^13,des-Met^14]Bombesin(6–14). Organs/tissues of interested were collected, weighed, and measured using an automatic gamma counter.

PC-3 tumor-bearing mice = experiment: Ex vivo biodistribution in PC-3 tumor-bearing mice
Procedure: as §1, §2

[2] = tested on: PC-3 tumor-bearing NRG mouse; experiment: Longitudinal SPECT/CT imaging in PC-3 tumor-bearing mice; format: in vivo, mice (NRG); details: SPECT/CT images
Procedure: The PC-3 tumor-bearing mice were sedated (2.5% isoflurane in O2) and injected with ^177Lu-labeled ligands (15–32 MBq) through a lateral caudal tail vein. […] At each time point, a 5 min CT scan was obtained using 615 μA and 60 kV parameters for localization and attenuation, followed by 2 × 30 min static SPECT scans acquired in list mode with an energy window centered around 208 keV. The MILabs U-SPECT II reconstruction software (version 8.00) was used to reconstruct data, and the images were decay corrected to the time of injection with PMOD v 3.402 (PMOD Technologies GmbH, Fallanden, Switzerland).

[3] = small intestine, Uptake in small intestine
[4] = 1 h blocked (co-injected with 100 µg [D-Phe6,Leu-NHEt13,des-Met14]Bombesin(6-14))
[5] = 1 h post-injection, 100 µg [D-Phe6,Leu-NHEt13,des-Met14]Bombesin(6–14)

## CC(C)C[C@H](NC(=O)[C@H](Cc1cnc[nH]1)N(C)C(=O)CNC(=O)[C@@H](NC(=O)[C@H](C)NC(=O)[C@H](Cc1c[nH]c2ccccc12)NC(=O)[C@H](CCC(N)=O)NC(=O)[C@@H](Cc1ccccc1)NC(=O)CN1CCC(NC(=O)CN2CCN(CC(=O)O)CCN(CC(=O)O)CCN(CC(=O)O)CC2)CC1)C(C)(C)C)C(=O)N1CSC[C@H]1C(N)=O [[^177Lu]Lu-LW01110, metal not drawn]
[1]; liver, Uptake in liver
  tissue uptake at 72 h: 0.07 ± 0.01 %ID/g
  tissue uptake at 120 h: 0.04 ± 0.01 %ID/g
[1]; lungs, Uptake in lungs
  tissue uptake at 24 h: 0.07 ± 0.03 %ID/g
[1]; muscle, Uptake in muscle, 1 h post-injection
  tissue uptake at 1 h: 0.15 ± 0.02 %ID/g
[1]; muscle, Uptake in muscle
  tissue uptake at 24 h: 0.01 %ID/g
  tissue uptake at 72 h: 0.01 %ID/g
[1]; pancreas, 100 ug, Uptake in pancreas, 1 h blocked (co-injected with 100 µg [D-Phe6,Leu-NHEt13,des-Met14]Bombesin(6-14))
  tissue uptake at 1 h: 2.71 ± 0.76 %ID/g
[1]; pancreas, Uptake in pancreas, 1 h post-injection
  tissue uptake at 1 h: 11.1 ± 1.37 %ID/g
[1]; pancreas, Uptake in pancreas
  tissue uptake at 4 h: 4.91 ± 0.63 %ID/g
  tissue uptake at 24 h: 3.1 ± 0.48 %ID/g
  tissue uptake at 120 h: 0.34 ± 0.04 %ID/g
[1]; small intestine, 100 ug, Uptake in small intestine, 1 h blocked (co-injected with 100 µg [D-Phe6,Leu-NHEt13,des-Met14]Bombesin(6-14))
  tissue uptake at 1 h: 0.49 ± 0.14 %ID/g
[1]; small intestine, Uptake in small intestine, 1 h post-injection
  tissue uptake at 1 h: 2.01 ± 0.13 %ID/g
[1]; [3]
  tissue uptake at 4 h: 0.56 ± 0.2 %ID/g
  tissue uptake at 24 h: 0.3 ± 0.1 %ID/g
[1]; spleen, 100 ug, Uptake in spleen, 1 h blocked (co-injected with 100 µg [D-Phe6,Leu-NHEt13,des-Met14]Bombesin(6-14))
  tissue uptake at 1 h: 0.21 ± 0.05 %ID/g
[1]; spleen, Uptake in spleen, 1 h post-injection
  tissue uptake at 1 h: 0.28 ± 0.05 %ID/g
[1]; spleen, Uptake in spleen
  tissue uptake at 4 h: 0.15 ± 0.03 %ID/g
  tissue uptake at 72 h: 0.1 ± 0.02 %ID/g
  tissue uptake at 120 h: 0.05 ± 0.01 %ID/g
[1]; stomach, 100 ug, Uptake in stomach, 1 h blocked (co-injected with 100 µg [D-Phe6,Leu-NHEt13,des-Met14]Bombesin(6-14))
  tissue uptake at 1 h: 0.17 ± 0.1 %ID/g
[1]; stomach, Uptake in stomach, 1 h post-injection
  tissue uptake at 1 h: 0.99 ± 0.21 %ID/g
[1]; stomach, Uptake in stomach
  tissue uptake at 4 h: 0.43 ± 0.16 %ID/g
  tissue uptake at 24 h: 0.17 ± 0.07 %ID/g
  tissue uptake at 72 h: 0.08 ± 0.02 %ID/g
  tissue uptake at 120 h: 0.04 ± 0.02 %ID/g
[1]; testes, 100 ug, Uptake in testes, 1 h blocked (co-injected with 100 µg [D-Phe6,Leu-NHEt13,des-Met14]Bombesin(6-14))
  tissue uptake at 1 h: 0.3 ± 0.16 %ID/g
[1]; testes, Uptake in testes
  tissue uptake at 24 h: 0.02 ± 0.01 %ID/g
  tissue uptake at 72 h: 0.02 %ID/g
  tissue uptake at 120 h: 0.01 %ID/g
PC-3 tumor-bearing mice; [4]
  Uptake in lungs: 0.52 ± 0.08 %ID/g
  Uptake in muscle: 0.14 ± 0.03 %ID/g
PC-3 tumor-bearing mice; 1 h post-injection
  Tumor/blood uptake ratio: 15.9 ± 1.15
  Uptake in adrenal glands: 1.22 ± 0.38 %ID/g
  Uptake in blood: 0.69 ± 0.06 %ID/g
  Uptake in bone: 0.14 ± 0.05 %ID/g
  Uptake in brain: 0.03 ± 0.00 %ID/g
  Uptake in liver: 0.40 ± 0.05 %ID/g
  Uptake in lungs: 0.69 ± 0.12 %ID/g
  Uptake in testes: 0.23 ± 0.04 %ID/g
PC-3 tumor-bearing mice; [5]
  reduction of average pancreas uptake by co-injection of blocker: 76%
  reduction of average tumor uptake by co-injection of blocker: 73%
PC-3 tumor-bearing mice; 4 h post-injection
  Uptake in adrenal glands: 1.02 ± 0.33 %ID/g
  Uptake in brain: 0.03 ± 0.02 %ID/g
  Uptake in heart: 0.06 ± 0.06 %ID/g
  Uptake in liver: 0.23 ± 0.07 %ID/g
  Uptake in lungs: 0.23 ± 0.11 %ID/g
  Uptake in muscle: 0.03 ± 0.01 %ID/g
  Uptake in testes: 0.06 ± 0.05 %ID/g
PC-3 tumor-bearing mice; 24 h post-injection
  Uptake in heart: 0.03 ± 0.00 %ID/g
  Uptake in spleen: 0.12 ± 0.02 %ID/g
PC-3 tumor-bearing mice; 72 h post-injection
  Uptake in adrenal glands: 0.41 ± 0.06 %ID/g
  Uptake in kidneys: 0.52 ± 0.10 %ID/g
  Uptake in large intestine: 0.23 ± 0.04 %ID/g
  Uptake in lungs: 0.06 ± 0.03 %ID/g
  Uptake in pancreas: 1.03 ± 0.30 %ID/g
  Uptake in small intestine: 0.09 ± 0.03 %ID/g
PC-3 tumor-bearing mice; 120 h post-injection
  Uptake in large intestine: 0.09 ± 0.02 %ID/g
  Uptake in lungs: 0.03 ± 0.03 %ID/g
  Uptake in small intestine: 0.03 ± 0.00 %ID/g
PC-3 tumor-bearing mice; mouse, in vivo, 100 ug, 1 h
  Uptake in large intestine: 0.29 ± 0.08 %ID/g
PC-3 tumor-bearing mice; relative to 1 h uptake
  uptake in PC-3 tumor xenografts cleared within 24 h: 37%
[2]
  excretion pathway: excreted mainly via the renal pathway

— article PMC12030706, “Novel ^177Lu-Labeled [Thz^14]Bombesin(6–14) Derivatives with Low Pancreas Accumulation for Targeting Gastrin-Releasing Peptide Receptor-Expressing Cancer” (Pharmaceuticals, 2025)
